Data as given in patent publication US6586606B2, “Process for the preparation of 3-aryl-benzofuran-2-ones” (Ciba Specialty Chemicals Corporation, priority 2000, dated 2003).

Columns and labels:
[1] = Stabilisation of polyethylene in permanent contact with water (extraction test, oxidation induction time); details: 0.05% compound (302) with 0.10% Irganox 1010, 0.05% Irgafos, 0.10% calcium stearate in PE-HD; deionised water, 50 days at 80° C.
Procedure: Stabilisation of polyethylene which is in permanent contact with water.
0.10% by weight of calcium stearate and a stabilizer mixture comprising 0.10% by weight of Irganox®1010 (pentaerythritol tetrakis[3-(3,5-di-tert-butyl-4-hydroxyphenyl)propionate]), 0.05% by weight of Irgafos®68 (tris(2,4-di-tert-butylphenyl)phosphite) and 0.05% by weight of compound (302) (Table 3) is added dry to a polyethylene polymer (Hostalene® CRP 100; PE-HD) taken direct from a reactor and are incorporated therein in a Pappenmaier mixer (type 20) within 2 minutes.
In an extruder, of Schwabenthan, the stabilized polyethylene is homogenised and processed to granulate. For the extraction tests in water, 200 mm by 150 mm by 2 mm test plates are pressed from the granulate of the individual formulations using a table press. To ease the demoulding of the test plates, the pressing process is carried out between two aluminium foils. […]
The test plates are subjected to the above test conditions for 50 days at 80° C. Upon termination of the extraction test, the residual stabilizer content and the oxidation induction time of the test plates are determined.
The residual content of sterically hindered phenol, Irganox®1010, is determined using an internal standard in an HPLC appliance of the Spectra Physics SP 8800 type, equipped with autosampler and UV/VIS detector of the Spectra 200 type. […]

| melting point | stability of polyolefins in permanent contact with extracting media [1] | Compound |
| --- | --- | --- |
| 116 to 119 °C | – | CC(C)(C)c1cc2c(c(C(C)(C)C)c1)OC(=O)C2c1ccccc1 (centres unmarked) [(101), 5,7-di-tert-butyl-3-phenyl-3H-benzofuran-2-one] |
| 172 to 174 °C | – | COc1ccc(-c2c(N)oc3c(C(C)(C)C)cc(C(C)(C)C)cc23)cc1OC [(303), 2-amino-5,7-di-tert-butyl-3-(3,4-dimethoxyphenyl)-benzofurane] |
| 174 to 178 °C | – | CC(C)(C)c1cc(C(C)(C)C)c2oc(N)c(-c3ccccc3)c2c1 [Compound (301), 2-amino-3-phenyl-5,7-di-tert-butyl-benzofurane] |
| 128 to 130 °C | improved | Cc1ccc(-c2c(N)oc3c(C(C)(C)C)cc(C(C)(C)C)cc23)cc1C [Compound (302), 2-amino-5,7-di-tert-butyl-3-(3,4-dimethylphenyl)-benzofurane] |
